Read-outs that look alike come from different tables or passages of the source. Each block holds one sequence with its values, some of them ahead of it. Ends that are not written are not given here.
Experiments:
NCS-1 [1] = assay: Peptide binding to NCS-1, preliminary data (technique not stated)
[2] = Solubility of peptides in aqueous buffer; format: physicochemical
Excerpt: The peptide (hereafter referred to as D2 peptide) used here corresponds to residues 428–443 of the human D2 receptor. The synthetic D2 peptide ([…]) and its modified form D2SR ([…]), were purchased from Peptide Protein Research Ltd., Fareham, PO15 6DP, UK. The shorter form, corresponding to residues 428–435 ([…]) were, purchased from GenicBio, China. The peptides was delivered >95% pure. […] Therefore, in all the experiments, peptide samples were first dissolved in a minimal amount of DMSO and then diluted with the relevant buffer. If necessary, pH values of the samples were re-adjusted to the desired value.
(§1) Two peptides D2 and D2SR were used for the NMR studies. […] The peptides were first dissolved in minimal amounts of DMSO (approximately 1–2 µl) before adding the protein solution to achieve the appropriate peptide to protein ratio.

NCS-1 [3] = molecular target: T1, NCS-1 (Rattus norvegicus, UniProt P62168); assay: Intrinsic tryptophan fluorescence titration of peptide binding to wild type NCS-1
T1 construct: His tag (TEV-cleavable, pET-M11) (N, cleaved yes); made in house; host or cells: E. coli BL21 (DE3)
T1 sequence (P62168 whole entry): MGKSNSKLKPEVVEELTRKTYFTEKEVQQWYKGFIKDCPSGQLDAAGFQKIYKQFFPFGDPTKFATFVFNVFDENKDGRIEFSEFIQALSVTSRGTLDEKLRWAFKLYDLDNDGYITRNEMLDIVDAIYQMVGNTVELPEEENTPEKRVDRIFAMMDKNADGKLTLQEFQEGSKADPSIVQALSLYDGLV
Description: (§2) An expression construct of Rattus norvegicus NCS-1 [6] was sub-cloned from a pGEX-6p plasmid expressing NCS-1 [36] into pET-M11 vector. The primers were designed based on the cDNA sequence obtained from GenBank accession no. L27421 with Nco-1 and Kpn-1 as restriction digest sites. The sense and antisense strands were 5′[…] 3′ and 5′[…] CTA TAC CAG CCC GTC GTA 3 ′ respectively. Polymerase chain reaction was carried out using KOD Hot Start DNA Polymerase from Novagen. Confirmation of the insert was obtained through DNA sequencing. The R102Q mutation was generated by site-directed mutagenesis.
NCS-1 plasmid was transformed into E.coli strain BL21 (DE3) (Novagen). Protein expression in Luria Broth (LB) and 2M9 minimal media performed by growing the cells to mid log (0.6–0.7 OD A^o600) at 30 °C; after induction with 1 mM IPTG the culture was left to grow overnight at 18 °C. ^15N NCS-1 and doubly labelled ^13C^15N proteins were expressed using 2M9 media containing ^15NH4Cl only or ^13C glucose and ^15NH4Cl as the carbon and nitrogen source. 1 ml of the starter culture was grown in LB overnight, centrifuged, and the pellet added to a 50 ml labelled media and left to grow overnight in 50 ml labelled culture. The overnight culture was used to inoculate the labelled growth medium so that the starting optical density was less than 0.1 A-600 and protein expressed as described above. […]
(§3) To monitor intrinsic tryptophan fluorescence of NCS-1 proteins, [37], purified recombinant NCS-1 at a concentration of 1 µM in a calcium free buffer (20 mM HEPES, 139 mM NaCl, 2 mM ATP, 5 mM EGTA, 5 mM nitrolotriacetic acid, pH 7.4) were excited at room temperature with 280 nm light, and their emission spectra from 290–410 nm were measured, using a Jasco FP-6300 spectrofluorometer (Tokyo, Japan). The concentration of free calcium was increased by addition of CaCl2 to give a calculated free Ca^2+ concentration of 1 µM and an additional emission spectrum were measured. The D2 peptide was then added to give incremental increase in peptide concentration with emission spectra measured after each addition. The data for the measured fluorescence change at each peptide concentration were fitted to a logistic fit using non-linear curve fitting in OriginPro (Microcal).
Figure 2 Binding of the dopamine D2 receptor C-terminus to NCS-1 monitored using tryptophan fluorescence. (A) The spectra represent intrinsic tryptophan fluorescence of NCS-1 before and after addition 1 µM Ca^2+ and after subsequent addition of the D2SR peptide. (B) Extent of the changes in tryptophan fluorescence following sequential additions of D2SR peptide to the final concentrations indicated. […]

R102Q NCS-1 = molecular target: T2, R102Q NCS-1 (Rattus norvegicus, UniProt P62168, R102Q); assay: Intrinsic tryptophan fluorescence titration of peptide binding to R102Q NCS-1
T2 construct: His tag (TEV-cleavable, pET-M11) (N, cleaved yes); made in house; host or cells: E. coli BL21 (DE3)
T2 sequence (P62168 whole entry R102Q): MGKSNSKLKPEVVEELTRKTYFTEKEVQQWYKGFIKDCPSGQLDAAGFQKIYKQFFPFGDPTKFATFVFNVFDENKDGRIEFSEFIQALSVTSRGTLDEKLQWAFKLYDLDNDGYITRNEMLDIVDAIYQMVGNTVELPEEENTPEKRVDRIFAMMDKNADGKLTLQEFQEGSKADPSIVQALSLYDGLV
Description: as §2, §3
Figure 6 Significant line-broadening in the C-terminal region of NCS-1 and effect of the R102Q mutation on peptide binding. […] (B) Extent of the changes in tryptophan fluorescence following sequential additions of D2SR peptide to the final concentrations indicated in the presence of 1 µM Ca^2+. […] (C) Curve fitting of data from separate tryptophan fluorescence experiments enables determination of the concentration of D2SR peptide required for half-maximal binding and the Hill coefficient for wild type and R102Q NCS-1. […]

NCS-1 [4] = molecular target: T1, NCS-1; assay: NMR titration / chemical shift mapping of peptide binding to NCS-1
Description: as §2
NCS-1 plasmid was transformed into E.coli strain BL21 (DE3) (Novagen). Protein expression in Luria Broth (LB) and 2M9 minimal media performed by growing the cells to mid log (0.6–0.7 OD A^o600) at 30 °C; after induction with 1 mM IPTG the culture was left to grow overnight at 18 °C. ^15N NCS-1 and doubly labelled ^13C^15N proteins were expressed using 2M9 media containing ^15NH4Cl only or ^13C glucose and ^15NH4Cl as the carbon and nitrogen source. 1 ml of the starter culture was grown in LB overnight, centrifuged, and the pellet added to a 50 ml labelled media and left to grow overnight in 50 ml labelled culture. The overnight culture was used to inoculate the labelled growth medium so that the starting optical density was less than 0.1 A-600 and protein expressed as described above. Cells were harvested and resuspended into the lysis buffer (50 mM TrisHCl, 200 mM NaCl 5 mMCaCl2 pH 7.5 plus a tablet per litre of culture of Complete EDTA Free Protease inhibitor (Roche Applied Science).
NCS-1 was prepared in Tris buffer pH 6.8 in the presence of 5 mM MgCl2 and 5 mM CaCl2. Unless otherwise state, NMR spectra were recorded at 27 °C on Bruker DRX 800 and 600 MHz spectrometers equipped with CryoProbes. Data were processed using the Bruker Software TopSpin and analysed using CCPN software. Sequence-specific backbone and side-chain resonance assignment of NCS-1 was transferred from the previously reported assignments on unmyristoylated Ca^2+ loaded NCS-1 (Biological Magnetic Resonance Data Bank accession number 4378); however, due to differences in sample conditions and temperature, many resonances were re-assigned during the course of these studies using HNCA, HN(CO)CA, HNCO, HN(CA)CO, CBCA(CO)NH, CBCANH, HBHA(CO)NH and HCCH-TOCSY experiments. In addition, the resonance assignment for the aromatic side-chain had been incomplete. The aromatic side-chains were partially assigned using 2D [^1H, ^13C] -TROSY, and homonuclear TOCSY and NOESY spectra recorded in D2O.
as §1
The minimum chemical-shift differences between free and D2-bound NCS-1 were expressed as: Δδ = √ {(ΔH/0.03)^2 + (ΔN/0.03)^2}. Values of Δδ greater than 0.07 were considered significant.
Figure 3 Interactions between NCS-1 and D2 Peptide monitored using NMR spectroscopy. (A) ^1H^15N HSQC spectra of ^15N,^13C NCS-1 (1 mM) in 50 mM Tris buffer, 50 mM NaCl, 5 mM CaCl2, pH 6.5, 300 K on Avance Bruker 800 MHz spectrometer in the absence (black) or in the presence of D2SR at a final concentration of 5 mM (red). (B) Sections of ^1H^15N HSQC spectra of ^15N,^13C NCS-1 showing the progression of peaks throughout the peptide titration (from black to red). Shown are the various characteristics of resonance perturbation ranging from complete line-broadening to gradual change in chemical shifts or a mixture of shifts and line-broadening. (C) ^1H^13C HSQC spectra of ^15N,^13C NCS-1 (1 mM) (black) in the presence of D2SR (final concentration of 5 mM) (red) indicating some of the resolved methyl groups with most significant shift changes.

NCS-1 [5] = conditions: receptor residues 428–435; cited from earlier work
Excerpt: This seems surprising as these are the cytoplasmic residues in closest proximity to the transmembrane domain of the receptor and that in the structure of the dopamine D3 receptor (PDB accession 3PBL), the first two amino acids TF form part of penultimate helix VII of the receptor, rather than the C-terminus helix VIII.

[6] = up to a 10-fold excess of peptide

Sequence: NIEFRKAFLKILHS
- affinity for NCS-1 relative to TFNIEFRKAFLKILHS (NCS-1 [1]): able to bind NCS-1 with similar affinity to […]

- solubility in aqueous buffer [2]: rather insoluble in aqueous buffer
Sequence: TFNIEFRKAFLKILHC [D2 peptide]

- Hill coefficient (NCS-1 [3]; D2SR, wild type NCS-1, 1 µM free Ca^2+, logistic fit, n = 5): ~1.5
- Hill coefficient (R102Q NCS-1; D2SR, R102Q NCS-1, 1 µM Ca^2+, logistic fit, n = 4): around 1.5
- increase in affinity of the protein for D2SR by R102Q mutation (R102Q NCS-1; R102Q (n = 4) versus wild type (n = 5) NCS-1, 1 µM Ca^2+, unpaired Student's t-test): 2.07 fold
- exchange regime of NCS-1 resonances (NCS-1 [4]; HSQC titration, D2SR): intermediate to fast exchange regime
- least affected NCS-1 regions (NCS-1 [4]; HSQC titration, D2SR): helices1, 5, 8 and part of 2
- solubility in aqueous buffer ([2]; peptides first dissolved in DMSO, then diluted with buffer): rather insoluble in aqueous buffer
- solubility improvement over D2 peptide ([2]; two extra amino acids intended to increase solubility): solubility improvement was only marginal
Sequence: TFNIEFRKAFLKILHSR [D2SR]
- change in NCS-1 tryptophan fluorescence above that following addition of 1 µM free Ca^2+ (NCS-1 [3]; 1 µM free Ca^2+): additional increase in fluorescence of a similar magnitude
- affinity of binding to R102Q versus wild type NCS-1 (R102Q NCS-1; compared with wild-type NCS-1): affinity of binding was increased in the mutant
- most affected NCS-1 regions, mapped onto 1G8I (NCS-1 [4]; HSQC titration, D2SR): residues located either in the hydrophobic ligand-binding crevice or in the regions linking the helical regions of the EF hands
- NCS-1 resonance perturbation (chemical shift changes/broadening) (NCS-1 [4]; ^1H-^15N and ^1H-^13C HSQC of ^15N,^13C NCS-1, 27 °C and 35 °C): At both temperatures chemical shift changes and/or broadening of specific NCS-1 resonances were observed
- line-broadening of C-terminal residues 180–190 (helix 11) of NCS-1 (NCS-1 [4]; ^1H^15N HSQC, peptide titration, 1 mM NCS-1, 0.5 mM D2SR, pH 6.5, 300 K): line-broadening occurring at sub-stoichiometric concentrations of D2SR

- ability to bind NCS-1 (restated finding, binding assays) (NCS-1 [3]; 8-residue peptide, binding assays = fluorescence and NMR titrations): not able to bind NCS-1
- interaction with NCS-1 by fluorescence titration (NCS-1 [3]; [6]): no evidence for an interaction
- interaction with NCS-1 by NMR titration (NCS-1 [4]; [6]): no evidence for an interaction
Sequence: TFNIEFRK [shorter form, corresponding to residues 428–435 of the D2 receptor]
- binding to NCS-1 (yeast 2-hybrid) (NCS-1 [5]): shortest peptide that could bind NCS-1

Reference: article PMC3218054, “Characterisation of the Interaction of the C-Terminus of the Dopamine D2 Receptor with Neuronal Calcium Sensor-1” (PLoS ONE, 2011)
